Results reported in article PMC8268887, “Peptide/β-Peptoid Hybrids with Ultrashort PEG-Like Moieties: Effects on Hydrophobicity, Antibacterial Activity and Hemolytic Properties” (International Journal of Molecular Sciences, 2021).
Values after ≈ are worked out from the molar mass of the structure shown.

Experiments:
[1] = system: P. aeruginosa NMI 7197/19; type: cell-based, Pseudomonas aeruginosa; settings: NMI 7197/19, 20 h
Protocol: (§1) MIC values of the peptidomimetics were evaluated by using the modified Hancock lab protocol in non-binding polystyrene microtiter plates. Bacterial suspensions of ~5 × 10^5 CFU/mL in Mueller-Hinton broth (Difco, Sparks, MD, USA) were prepared with Mg^2+ and Ca^2+ concentrations of 4 mg/L each. The compounds were dissolved in H2O and diluted in 0.01% acetic acid, 0.2% BSA (final concentration). Aliquots (11 µL) of test compounds were then transferred to wells containing bacterial suspensions (100 µL). Low-binding sterile tubes and tips (Axygen, Union City, CA, USA) were used for preparation and transfer of the solutions of the compounds. Following incubation for 20 h of the covered plates at 35 °C (±2 °C) with circular shaking at 180 rpm, the MICs were read.

P. aeruginosa PAO1 = type: cell-based, Pseudomonas aeruginosa; settings: PAO1, 20 h
Protocol: as §1

[2] = Hydrophobicity by retention in analytical RP-HPLC (% MeCN at peak elution); type: physicochemical; settings: for % MeCN at Elution, Aeris Peptide: Phenomenex Aeris Peptide XB-C18 column; for % MeCN at Elution, Aeris Peptide / % MeCN at Elution, Luna Omega / % MeCN at Elution, Supelco Discovery: gradient 0→60% B during 15 min; for % MeCN at Elution, Luna: Phenomenex Luna C18(2) column, RP-HPLC gradient 0→60% B during 15 min, relative hydrophobicity; for % MeCN at Elution, Luna Omega: Phenomenex Luna Omega Polar C18 column; for % MeCN at Elution, Supelco Discovery: Supelco Discovery BIO Wide pore C18 column
Protocol: For each peptide/β-peptoid hybrid oligomer, the retention time in RP-HPLC was measured on four different columns (details shown in Table 2): Phenomenex Luna C18(2) column (recommended for hydrophobic compounds [49]), Phenomenex Luna Omega Polar C18 column (recommended for both very polar and non-polar compounds [50]) as well as Phenomenex Aeris Peptide XB-C18 [51] and Sigma-Aldrich Supelco Discovery BIO Wide pore C18 [52] columns, which both are recommended for analysis of peptides. The retention times of the compounds on each column were used to calculate the acetonitrile concentration at peak elution (denoted merely as % MeCN; Table 1). As expected, the % MeCN for each compound varied somewhat between the four columns.
Starting materials and solvents were acquired from commercial suppliers (Iris Biotech, Markredwitz, Germany; Fluorochem, Hadfield, UK; and Merck, Darmstadt, Germany) and used without further purification. Water used for analytical and preparative high-performance liquid chromatography (HPLC) was filtered through a 0.22-μm capsule filter using an Evoqua LaboStar Pro TWF UV system. Purity and retention time of each peptidomimetic were determined by analytical HPLC by using a Phenomenex Luna Omega Polar C18 column (150 × 4.6 mm; particle size: 3 μm; pore size: 100 Å) on a Shimadzu Prominence and Shimadzu Nexera system using an aqueous acetonitrile (MeCN, VWR, Søborg, Denmark) gradient with 0.1% trifluoroacetic acid (TFA, Iris Biotech, Markredwitz, Germany) added (eluent A: 5:95 MeCN–H2O + 0.1% TFA, eluent B: 95:5 MeCN–H2O + 0.1% TFA); a flow rate of 0.8 mL/min was used. For elution of peptidomimetics, a linear gradient of 0% to 60% B during 15 min was used with UV detection at λ = 220 nm. […] Retention time of each peptidomimetic was also determined by using a Phenomenex Luna C18(2) column (150 × 4.6 mm; particle size: 3 μm; pore size: 100 Å), a Phenomenex Aeris Peptide XB-C18 column (150 × 4.6 mm; particle size: 3.6 μm; pore size: 100 Å), and a Sigma-Aldrich Supelco Discovery BIO Wide pore C18 column (150 × 4.6 mm, particle size: 3 µm; pore size: 300 Å). For each peptidomimetic, the percentage of MeCN at peak elution was calculated from the retention time by using the following formula:(1) %MeCN =0.95 (0.6Rt/15 min)+0.05 (1−0.6Rt/15 min)

A. baumannii NMI 3658/17 = type: cell-based, Acinetobacter baumannii; settings: NMI 3658/17, 20 h
Protocol: as §1

A. baumannii ATCC 19606 = type: cell-based, Acinetobacter baumannii; settings: ATCC 19606, 20 h
Protocol: as §1

[3] = Estimation of log D values (n-octanol/PBS pH 7.4, LC-MS, log Dmax from LOQ); type: physicochemical; settings: n-octanol/PBS pH 7.4, 25 °C; indicative threshold from LOQ in octanol phase
Protocol: A phosphate buffered saline (PBS) pH 7.4 was prepared and then saturated with n-octanol. Likewise, an n-octanol solution saturated with pH 7.4 PBS buffer was also prepared. Both solutions were shaken for 24 h, and then left for 24 h in a separating funnel to ensure complete separation of the two phases. This provided an aqueous phase (PBS buffer saturated with n-octanol) and an n-octanol phase (saturated with PBS buffer).
Samples for log D determination were prepared as following: All compounds were dissolved in PBS buffer at a concentration 4 mg/mL, which was used as stock solutions. PBS-saturated n-octanol (1.0 mL), n-octanol-saturated PBS (0.76 mL) and sample stock solution (0.24 mL) were placed into a 4-mL clear glass vial and incubated on Biosan Thermo Shaker TS-100 at 1000 rpm and 25 °C. For optimization of the assay, the incubation time was varied from 5 h to 48 h. […] After incubation samples were centrifugated and left for 30 min to ensure complete separation of the phases. The distribution coefficient was determined by quantification of the compounds both in the aqueous and n-octanol phases. Then, 100 µL of each phase were transferred to 1.5 mL champagne glass vial and evaporated using a GeneVac EZ-2 PLUS evaporation instrument. Before LC-MS analysis samples were diluted with 200 µL MeCN–0.1% aqueous formic acid (1:1, v/v).
LC-MS was performed on Acquity UPLC chromatograph coupled with a MICROMASS QUATTRO micro^TM API tandem mass spectrometer. The mass spectrometer was operated in positive electrospray ionisation mode. Parameter settings were as follows: desolvation gas (N2) flow was 600 L/h; desolvation gas temperature was 400 °C; capillary voltage, 3.30 kV; ion source temperature was 120 °C. Initial data acquisition was carried out in full-scan mode to select the most abundant ions of the individual compounds.
Waters Acquity UPLC column BEH C18 (2.1 × 50 mm, 1.7 µm particle size) was applied for analysis. Acetonitrile and 0.1% aqueous formic acid mixtures were used as mobile phase at a flow rate of 0.4 mL/min with the following gradient: 0.0–2.5 min 5–98% MeCN, 2.5–3.5 min 98% MeCN. Injection volume was 2 µL.
Limit of quantitation (LOQ) was determined using S/N ratio for each compound and used for log Dmax calculations according to the following equation:(2) log Dmax = log (theoretical peak area of n-octanol phase at LOQ concentration/peak area of buffer base) Theoretical peak area at LOQ was calculated according to the calibration curve for each compound.

S. aureus ATCC 29213 = type: cell-based, Staphylococcus aureus; settings: ATCC 29213, 20 h
Protocol: as §1

SMILES	MIC, P. aeruginosa NMI 7197/19 [1]	MIC, PA (P. aeruginosa PAO1)	% MeCN at Elution, Aeris Peptide [2]	% MeCN at Elution, Luna [2]	% MeCN at Elution, Luna Omega [2]	% MeCN at Elution, Supelco Discovery [2]	MIC, A. baumannii NMI 3658/17 (A. baumannii NMI 3658/17)	MIC, AB (A. baumannii ATCC 19606)	log Dmax [3]	MIC, SA (S. aureus ATCC 29213)
NCCCC[C@H](NC(=O)CCN(Cc1ccc(F)cc1)C(=O)[C@H](CCCCN)NC(=O)CCN(Cc1ccc(F)cc1)C(=O)[C@H](CCCCN)NC(=O)CCOCCOCCOCCOCCN)C(=O)N(CCC(=O)NCCOCCOCCOCCOCCC(=O)N[C@@H](CCCCN)C(=O)N(CCC(=O)N[C@@H](CCCCN)C(=O)N(CCC(=O)N[C@@H](CCCCN)C(=O)N(CCC(=O)NCCOCCOCCOCCOCCC(N)=O)Cc1ccc(F)cc1)Cc1ccc(F)cc1)Cc1ccc(F)cc1)Cc1ccc(F)cc1 [Compound 14, H-sPEG4-[X]3-sPEG4-[X]3-sPEG4-NH2]	>64 µg/mL	>64 µg/mL	40.4 % MeCN	42.4 % MeCN	43.5 % MeCN	42.5 % MeCN	32 µg/mL (≈ 12.3 µM)	16 µg/mL (≈ 6.15 µM)	< −2.883	>64 µg/mL
NCCCC[C@H](NC(=O)CCN(Cc1ccc(F)cc1)C(=O)[C@H](CCCCN)NC(=O)CCN(Cc1ccc(F)cc1)C(=O)[C@H](CCCCN)NC(=O)CCN(Cc1ccc(F)cc1)C(=O)[C@H](CCCCN)NC(=O)CCN(Cc1ccc(F)cc1)C(=O)[C@H](CCCCN)NC(=O)CCN(Cc1ccc(F)cc1)C(=O)[C@@H](N)CCCCN)C(=O)N(CCC(N)=O)Cc1ccc(F)cc1 [Compound 1, H-[Lys-βNPhe(4-F)]6-NH2]	>64 µg/mL	32 to 64 µg/mL	39.4 % MeCN	41.6 % MeCN	41.9 % MeCN	41.7 % MeCN	4 µg/mL (≈ 2.15 µM)	8 to 16 µg/mL	< −2.662	16 µg/mL (≈ 8.6 µM)
NCCCC[C@H](NC(=O)CCN(Cc1ccc(F)cc1)C(=O)[C@H](CCCCN)NC(=O)CCN(Cc1ccc(F)cc1)C(=O)[C@H](CCCCN)NC(=O)CCOCCOCCOCCOCCNC(=O)CCN(Cc1ccc(F)cc1)C(=O)[C@H](CCCCN)NC(=O)CCN(Cc1ccc(F)cc1)C(=O)[C@H](CCCCN)NC(=O)CCN(Cc1ccc(F)cc1)C(=O)[C@@H](N)CCCCN)C(=O)N(CCC(N)=O)Cc1ccc(F)cc1 [Compound 9, H-[X]3-sPEG4-[X]3-NH2]	>64 µg/mL	32 µg/mL (≈ 15.2 µM)	39.8 % MeCN	41.8 % MeCN	42.3 % MeCN	42.0 % MeCN	4 to 8 µg/mL	4 to 8 µg/mL	< −3.627	>64 µg/mL
NCCCC[C@H](NC(=O)CCN(Cc1ccc(F)cc1)C(=O)[C@H](CCCCN)NC(=O)CCN(Cc1ccc(F)cc1)C(=O)[C@H](CCCCN)NC(=O)COCCOCCNC(=O)CCN(Cc1ccc(F)cc1)C(=O)[C@H](CCCCN)NC(=O)CCN(Cc1ccc(F)cc1)C(=O)[C@H](CCCCN)NC(=O)CCN(Cc1ccc(F)cc1)C(=O)[C@@H](N)CCCCN)C(=O)N(CCC(N)=O)Cc1ccc(F)cc1 [Compound 7, H-[X]3-sPEG2-[X]3-NH2]	>64 µg/mL	16 to 32 µg/mL	39.4 % MeCN	41.4 % MeCN	41.8 % MeCN	41.6 % MeCN	4 µg/mL (≈ 1.99 µM)	4 µg/mL (≈ 1.99 µM)	< −3.650	
NCCCC[C@H](NC(=O)CCN(Cc1ccc(F)cc1)C(=O)[C@H](CCCCN)NC(=O)CCN(Cc1ccc(F)cc1)C(=O)[C@H](CCCCN)NC(=O)COCCN)C(=O)N(CCC(=O)NCCOCC(=O)N[C@@H](CCCCN)C(=O)N(CCC(=O)N[C@@H](CCCCN)C(=O)N(CCC(=O)N[C@@H](CCCCN)C(=O)N(CCC(=O)NCCOCC(N)=O)Cc1ccc(F)cc1)Cc1ccc(F)cc1)Cc1ccc(F)cc1)Cc1ccc(F)cc1 [Compound 11, H-sPEG1-[X]3-sPEG1-[X]3-sPEG1-NH2]	>64 µg/mL	32 µg/mL (≈ 14.8 µM)	38.7 % MeCN	40.8 % MeCN	41.4 % MeCN	40.8 % MeCN	8 µg/mL (≈ 3.7 µM)	4 to 8 µg/mL	< −2.876	>64 µg/mL
NCCCC[C@H](NC(=O)CCN(Cc1ccc(F)cc1)C(=O)[C@H](CCCCN)NC(=O)CCN(Cc1ccc(F)cc1)C(=O)[C@H](CCCCN)NC(=O)COCCOCCN)C(=O)N(CCC(=O)NCCOCCOCC(=O)N[C@@H](CCCCN)C(=O)N(CCC(=O)N[C@@H](CCCCN)C(=O)N(CCC(=O)N[C@@H](CCCCN)C(=O)N(CCC(=O)NCCOCCOCC(N)=O)Cc1ccc(F)cc1)Cc1ccc(F)cc1)Cc1ccc(F)cc1)Cc1ccc(F)cc1 [Compound 12, H-sPEG2-[X]3-sPEG2-[X]3-sPEG2-NH2]	>64 µg/mL	16 to 64 µg/mL	39.2 % MeCN	41.3 % MeCN	42.0 % MeCN	41.3 % MeCN	16 µg/mL (≈ 6.97 µM)	8 to 16 µg/mL	< −3.147	>64 µg/mL
